Assays:
SMARCA4 = biological target: T1, SMARCA4 (Homo sapiens, UniProt P51532); assay: Cellular degradation assay, SMARCA4 (Table 1); format: cell-based
T1 construct: endogenous in cells

SMARCA2 = biological target: T2, SMARCA2 (Homo sapiens, UniProt P51531); assay: SMARCA2 Cellular Degradation Assay (Western blot analysis on Jess platform); format: cell-based; conditions: for DC50 / Dmax: cellular degradation; for Fold Selectivity SMARCA4/2: ratio DC50 SMARCA4 / DC50 SMARCA2
T2 construct: endogenous in cells
How it was run: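 Readout: Jess Simple Western of tumor-extracted cell lysates, SMARCA2 area over actin area after background subtraction, shown as percentage of vehicle control.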

T1 sequence (P51532 whole entry, species assumed): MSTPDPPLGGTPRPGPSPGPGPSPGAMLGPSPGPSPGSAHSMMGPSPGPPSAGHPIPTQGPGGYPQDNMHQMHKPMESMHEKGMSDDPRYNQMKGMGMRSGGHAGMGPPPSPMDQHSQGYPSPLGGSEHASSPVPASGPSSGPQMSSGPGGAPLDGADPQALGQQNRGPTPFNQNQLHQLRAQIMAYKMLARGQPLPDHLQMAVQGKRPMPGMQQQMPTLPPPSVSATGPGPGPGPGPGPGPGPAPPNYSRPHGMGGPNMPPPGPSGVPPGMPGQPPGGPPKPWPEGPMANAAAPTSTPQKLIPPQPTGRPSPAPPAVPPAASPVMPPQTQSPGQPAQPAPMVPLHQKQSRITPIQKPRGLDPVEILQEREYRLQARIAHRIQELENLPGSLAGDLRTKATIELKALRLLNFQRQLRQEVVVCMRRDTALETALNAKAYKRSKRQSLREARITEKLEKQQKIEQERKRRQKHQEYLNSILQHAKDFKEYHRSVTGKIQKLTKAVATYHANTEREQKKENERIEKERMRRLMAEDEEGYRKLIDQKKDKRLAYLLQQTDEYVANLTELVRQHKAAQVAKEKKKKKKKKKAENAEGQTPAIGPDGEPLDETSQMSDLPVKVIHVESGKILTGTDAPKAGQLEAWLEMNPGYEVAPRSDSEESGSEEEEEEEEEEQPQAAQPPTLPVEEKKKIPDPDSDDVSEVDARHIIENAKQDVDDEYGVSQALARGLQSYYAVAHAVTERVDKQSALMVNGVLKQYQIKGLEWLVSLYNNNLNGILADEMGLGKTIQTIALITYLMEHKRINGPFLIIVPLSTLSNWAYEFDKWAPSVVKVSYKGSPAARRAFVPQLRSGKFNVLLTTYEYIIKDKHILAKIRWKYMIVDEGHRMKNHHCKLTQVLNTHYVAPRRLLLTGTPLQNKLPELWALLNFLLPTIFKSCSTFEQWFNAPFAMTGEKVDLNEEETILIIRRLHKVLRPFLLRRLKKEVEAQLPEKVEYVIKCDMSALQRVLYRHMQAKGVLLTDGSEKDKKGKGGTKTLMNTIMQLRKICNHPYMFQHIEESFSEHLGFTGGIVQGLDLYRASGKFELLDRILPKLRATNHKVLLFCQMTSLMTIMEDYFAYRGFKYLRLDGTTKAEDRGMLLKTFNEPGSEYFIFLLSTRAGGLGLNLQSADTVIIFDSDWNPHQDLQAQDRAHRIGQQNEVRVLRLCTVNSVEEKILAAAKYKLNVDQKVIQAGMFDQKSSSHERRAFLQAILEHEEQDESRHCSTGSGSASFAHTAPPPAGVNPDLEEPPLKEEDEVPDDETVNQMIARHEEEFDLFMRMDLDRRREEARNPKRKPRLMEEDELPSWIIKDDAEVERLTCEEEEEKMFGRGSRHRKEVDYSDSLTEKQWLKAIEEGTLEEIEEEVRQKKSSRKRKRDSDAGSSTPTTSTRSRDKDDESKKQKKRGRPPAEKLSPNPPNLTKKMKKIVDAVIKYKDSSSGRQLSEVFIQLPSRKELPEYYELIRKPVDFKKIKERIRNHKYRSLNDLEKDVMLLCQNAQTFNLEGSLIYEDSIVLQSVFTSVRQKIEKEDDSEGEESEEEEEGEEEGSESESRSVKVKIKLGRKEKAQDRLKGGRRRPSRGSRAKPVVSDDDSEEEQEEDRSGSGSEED
T2 sequence (P51531 whole entry, species assumed): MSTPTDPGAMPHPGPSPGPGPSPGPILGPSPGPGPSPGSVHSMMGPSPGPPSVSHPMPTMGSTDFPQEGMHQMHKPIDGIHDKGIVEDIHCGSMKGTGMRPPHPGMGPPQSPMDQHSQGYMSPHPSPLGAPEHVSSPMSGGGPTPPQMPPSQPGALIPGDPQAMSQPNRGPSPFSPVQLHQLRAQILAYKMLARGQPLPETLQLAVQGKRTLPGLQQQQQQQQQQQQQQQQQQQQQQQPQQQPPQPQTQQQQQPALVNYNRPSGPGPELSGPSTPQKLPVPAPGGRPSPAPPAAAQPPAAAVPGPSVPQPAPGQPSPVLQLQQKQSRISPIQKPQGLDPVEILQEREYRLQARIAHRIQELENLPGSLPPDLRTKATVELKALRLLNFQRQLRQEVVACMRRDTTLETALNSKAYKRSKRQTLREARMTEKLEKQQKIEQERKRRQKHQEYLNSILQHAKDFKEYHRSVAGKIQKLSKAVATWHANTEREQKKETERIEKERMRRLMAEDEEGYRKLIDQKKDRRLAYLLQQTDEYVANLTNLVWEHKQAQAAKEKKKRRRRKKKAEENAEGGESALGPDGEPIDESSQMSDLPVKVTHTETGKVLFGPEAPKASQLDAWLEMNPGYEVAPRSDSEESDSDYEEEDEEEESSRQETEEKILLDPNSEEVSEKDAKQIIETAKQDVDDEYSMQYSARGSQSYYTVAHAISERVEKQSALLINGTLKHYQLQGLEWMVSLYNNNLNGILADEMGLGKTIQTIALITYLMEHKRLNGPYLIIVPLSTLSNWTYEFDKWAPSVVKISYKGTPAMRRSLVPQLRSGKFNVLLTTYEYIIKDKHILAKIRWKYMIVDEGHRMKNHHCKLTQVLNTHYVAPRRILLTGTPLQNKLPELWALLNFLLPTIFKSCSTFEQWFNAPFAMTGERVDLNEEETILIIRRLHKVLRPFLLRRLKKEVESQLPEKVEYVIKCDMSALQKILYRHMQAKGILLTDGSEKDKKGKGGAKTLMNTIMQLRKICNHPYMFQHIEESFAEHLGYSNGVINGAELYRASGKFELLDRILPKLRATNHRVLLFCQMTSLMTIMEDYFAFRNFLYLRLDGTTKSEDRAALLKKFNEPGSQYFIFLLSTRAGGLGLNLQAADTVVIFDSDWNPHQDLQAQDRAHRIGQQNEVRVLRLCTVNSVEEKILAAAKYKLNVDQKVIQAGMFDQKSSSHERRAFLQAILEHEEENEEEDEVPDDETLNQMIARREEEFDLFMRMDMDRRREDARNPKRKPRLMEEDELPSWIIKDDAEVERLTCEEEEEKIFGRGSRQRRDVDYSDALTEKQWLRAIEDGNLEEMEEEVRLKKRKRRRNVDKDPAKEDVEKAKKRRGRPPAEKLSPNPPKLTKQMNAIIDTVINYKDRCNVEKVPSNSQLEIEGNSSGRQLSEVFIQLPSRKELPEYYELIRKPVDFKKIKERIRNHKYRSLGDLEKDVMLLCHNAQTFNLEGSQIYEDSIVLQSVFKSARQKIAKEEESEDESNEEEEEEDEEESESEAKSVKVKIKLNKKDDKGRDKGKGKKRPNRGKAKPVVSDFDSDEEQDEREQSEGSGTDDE

Row | SMILES | DC50 (SMARCA4) [nM] | Dmax (SMARCA4) [%] | DC50 (SMARCA2) [nM] | Dmax (SMARCA2) [%] | Fold Selectivity SMARCA4/2 (SMARCA2)
1 | Cn1c(=O)n(C2CCC(=O)NC2=O)c2ccc(N3CCC(CN4CCC(NC(=O)C5(c6ccccc6)CCN(c6cnnc(-c7ccccc7O)c6)CC5)CC4)CC3)cc21 (racemic) [Example 158, rac-N-{1-[(1-{1-[(3R)-2,6-dioxopiperidin-3-yl]-3-methyl-2-oxo-2,3-dihydro-1H-1,3-benzodiazol-5-yl}piperidin-4-yl)methyl]piperidin-4-yl}-1-[6-(2-hydroxyphenyl)pyridazin-4-yl]-4-phenylpiperidine-4-carboxamide] | 1.36 | 88.5 | 0.44 | 92 | 3
2 | Cn1c(=O)n(C2CCC(=O)NC2=O)c2ccc(N3CCC(CN4CCC5(CC4)CN(C(=O)C4(c6ccccc6)CCN(c6cnnc(-c7ccccc7O)c6)CC4)C5)CC3)cc21 (racemic) [Example 159, rac-(3R)-3-(5-{4-[(2-{1-[6-(2-hydroxyphenyl)pyridazin-4-yl]-4-phenylpiperidine-4-carbonyl}-2,7-diazaspiro[3.5]nonan-7-yl)methyl]piperidin-1-yl}-3-methyl-2-oxo-2,3-dihydro-1H-1,3-benzodiazol-1-yl)piperidine-2,6-dione] | 1.45 | 82.2 | 0.38 | 89.5 | 4
3 | O=C1CCC(c2ccc(N3C[C@@H]4CN(CC5CCN(C(=O)C6(c7ccccc7)CCN(c7cnnc(-c8ccccc8O)c7)CC6)CC5)C[C@H]4C3)cc2)C(=O)N1 (mixture of isomers) [Example 160, (3RS)-3-{4-[(3aS,6aS)-5-[(1-{1-[6-(2-hydroxyphenyl)pyridazin-4-yl]-4-phenylpiperidine-4-carbonyl}piperidin-4-yl)methyl]-octahydropyrrolo[3,4-c]pyrrol-2-yl]phenyl}piperidine-2,6-dione] | 104 | 71.4 | 12 | 87.7 | 9
4 | O=C1CCC(c2ccc(N3CCC4(CCN(CC5CCN(C(=O)C6(c7ccccc7)CCN(c7cnnc(-c8ccccc8O)c7)CC6)CC5)C4)CC3)cc2)C(=O)N1 (racemic) [Example 163, rac-(3R)-3-(4-{2-[(1-{1-[6-(2-hydroxyphenyl)pyridazin-4-yl]-4-phenylpiperidine-4-carbonyl}piperidin-4-yl)methyl]-2,8-diazaspiro[4.5]decan-8-yl}phenyl)piperidine-2,6-dione] |  | 49.3 | 40.8 | 62 | 245
5 | O=C1CC[C@@H](c2ccc(N3CCN(CC4=NO[C@@H]5CN(C(=O)C6(c7ccccc7)CCN(c7cnnc(-c8ccccc8O)c7)CC6)C[C@H]45)CC3)cc2)C(=O)N1 (racemic) [Example 165, (3RS&)-3-[4-(4-{[(3aRS,6aSR)-5-{1-[6-(2-hydroxyphenyl)pyridazin-4-yl]-4-phenylpiperidine-4-carbonyl}-3aH,4H,5H,6H,6aH-pyrrolo[3,4-d][1,2]oxazol-3-yl]methyl}piperazin-1-yl)phenyl]piperidine-2,6-dione] | 1000 | 34 | 45.8 | 58 | 22
6 | O=C1CC[C@@H](c2ccc(O[C@H]3CC[C@H](CN4CC5(C4)CN(C(=O)C4(c6ccccc6)CCN(c6cnnc(-c7ccccc7O)c6)CC4)C5)CC3)cc2)C(=O)N1 (racemic) [Example 166, (3RS)-3-(4-{[(1r,4r)-4-[(6-{1-[6-(2-hydroxyphenyl)pyridazin-4-yl]-4-phenylpiperidine-4-carbonyl}-2,6-diazaspiro[3.3]heptan-2-yl)methyl]cyclohexyl]oxy}phenyl)piperidine-2,6-dione] | 317 | 35.2 | 24.2 | 65.8 | 13
7 | O=C1CCC(c2ccc(N3CCC(CCN4CC5(CCCN(C(=O)C6(c7ccccc7)CCN(c7cnnc(-c8ccccc8O)c7)CC6)C5)C4)CC3)cc2)C(=O)N1 (racemic) [Example 167, rac-(3R)-3-(4-{4-[2-(6-{1-[6-(2-hydroxyphenyl)pyridazin-4-yl]-4-phenylpiperidine-4-carbonyl}-2,6-diazaspiro[3.5]nonan-2-yl)ethyl]piperidin-1-yl}phenyl)piperidine-2,6-dione] | 659 | 23.7 | 40.1 | 67.5 | 16
8 | O=C1CCC(Nc2ccc(C3CCN(CCNC(=O)C4(c5ccccc5)CCN(c5cnnc(-c6ccccc6O)c5)CC4)CC3)cc2)C(=O)N1 (racemic) [Example 170, rac-N-{2-[4-(4-{[(3R)-2,6-dioxopiperidin-3-yl]amino}phenyl)piperidin-1-yl]ethyl}-1-[6-(2-hydroxyphenyl)pyridazin-4-yl]-4-phenylpiperidine-4-carboxamide] |  | 48.5 | 38.3 | 59.2 | 261

Now from value to molecule:

Row | DC50 (SMARCA4) [nM] | Dmax (SMARCA4) [%] | DC50 (SMARCA2) [nM] | Dmax (SMARCA2) [%] | Fold Selectivity SMARCA4/2 (SMARCA2) | SMILES
9 | 1000 | 41.4 | 28.5 | 69.5 | 35 | N#CC1(CN2CCN(c3ccc([C@@H]4CCC(=O)NC4=O)cc3)CC2)CC12CCN(C(=O)C1(c3ccccc3)CCN(c3cnnc(-c4ccccc4O)c3)CC1)CC2 (mixture of isomers) [Example 171, rac-1-[(4-{4-[(3R)-2,6-dioxopiperidin-3-yl]phenyl}piperazin-1-yl)methyl]-6-{1-[6-(2-hydroxyphenyl)pyridazin-4-yl]-4-phenylpiperidine-4-carbonyl}-6-azaspiro[2.5]octane-1-carbonitrile]
10 |  | 39.8 | 44.9 | 62 | 223 | CN(C(=O)CN1CCN(c2ccc([C@H]3CCC(=O)NC3=O)cc2)CC1)[C@H]1CC[C@H](NC(=O)C2(Oc3ccccc3)CCN(c3cnnc(-c4ccccc4O)c3)CC2)CC1 (racemic) [Example 173, 1-[6-(2-hydroxyphenyl)pyridazin-4-yl]-4-phenoxy-N-[(1r,4r)-4-[2-(4-{4-[(3R)-2,6-dioxopiperidin-3-yl]phenyl}piperazin-1-yl)-N-methylacetamido]cyclohexyl]piperidine-4-carboxamide]
11 |  | 35.6 | 29.8 | 60.2 | 335 | O=C1CC[C@H](c2ccc(N3CCC(CN[C@H]4CC[C@H](NC(=O)C5(c6ccccc6)CCN(c6cnnc(-c7ccccc7O)c6)CC5)CC4)CC3)cc2)C(=O)N1 (racemic) [Example 175, 1-[6-(2-hydroxyphenyl)pyridazin-4-yl]-4-phenyl-N-[(1r,4r)-4-{[(1-{4-[(3RS)-2,6-dioxopiperidin-3-yl]phenyl}piperidin-4-yl)methyl]amino}cyclohexyl]piperidine-4-carboxamide]
12 |  | 53 | 22.3 | 76.8 | 449 | CC1(CN2CCC(c3ccc(C4CCC(=O)NC4=O)cc3)CC2)CCN(C(=O)C2(c3ccccc3)CCN(c3cnnc(-c4ccccc4O)c3)CC2)C1 (racemic) [Example 176, rac-(3R)-3-(4-{1-[(1-{1-[6-(2-hydroxyphenyl)pyridazin-4-yl]-4-phenylpiperidine-4-carbonyl}-3-methylpyrrolidin-3-yl)methyl]piperidin-4-yl}phenyl)piperidine-2,6-dione]
13 | 21.6 | 54.5 | 3.53 | 71.5 | 6 | O=C1CCC(Nc2ccc(C3CCN(CC4CCC45CN(C(=O)C4(c6ccccc6)CCN(c6cnnc(-c7ccccc7O)c6)CC4)C5)CC3)cc2)C(=O)N1 (racemic) [Example 177, rac-(3R)-3-[(4-{1-[(2-{1-[6-(2-hydroxyphenyl)pyridazin-4-yl]-4-phenylpiperidine-4-carbonyl}-2-azaspiro[3.3]heptan-5-yl)methyl]piperidin-4-yl}phenyl)amino]piperidine-2,6-dione]
14 | 70.3 | 62.2 | 10.1 | 76.2 | 7 | O=C1CC[C@H](c2ccc(N3CCC4(CC3)CC(N[C@H]3CC[C@H](NC(=O)C5(c6ccccc6)CCN(c6cnnc(-c7ccccc7O)c6)CC5)CC3)CO4)cc2)C(=O)N1 (mixture of isomers) [Example 178, 1-[6-(2-hydroxyphenyl)pyridazin-4-yl]-4-phenyl-N-[(1r,4r)-4-[(8-{4-[(3RS)-2,6-dioxopiperidin-3-yl]phenyl}-1-oxa-8-azaspiro[4.5]decan-3-yl)amino]cyclohexyl]piperidine-4-carboxamide]
15 | 211 | 57.7 | 17.9 | 83.4 | 12 | O=C1CCC(c2ccc(N3CCC(F)(CN4CCC(NC(=O)C5(c6ccccc6)CCN(c6cnnc(-c7ccccc7O)c6)CC5)CC4)CC3)cc2)C(=O)N1 (racemic) [Example 179, rac-N-{1-[(1-{4-[(3R)-2,6-dioxopiperidin-3-yl]phenyl}-4-fluoropiperidin-4-yl)methyl]piperidin-4-yl}-1-[6-(2-hydroxyphenyl)pyridazin-4-yl]-4-phenylpiperidine-4-carboxamide]
16 | 317 | 42.3 | 19.6 | 72.3 | 16 | O=C1CCC(c2ccc(N3CC[C@H](CCN4CC5(C4)CN(C(=O)C4(c6ccccc6)CCN(c6cnnc(-c7ccccc7O)c6)CC4)C5)C3)nc2)C(=O)N1 (mixture of isomers) [Example 181, (3RS)-3-{6-[(3S)-3-[2-(6-{1-[6-(2-hydroxyphenyl)pyridazin-4-yl]-4-phenylpiperidine-4-carbonyl}-2,6-diazaspiro[3.3]heptan-2-yl)ethyl]pyrrolidin-1-yl]pyridin-3-yl}piperidine-2,6-dione]

Reference: US20250051344A1, “BIFUNCTIONAL SELECTIVE DEGRADERS OF SMARCA2 AND THERAPEUTIC USES THEREOF” (Nurix Therapeutics, Inc., priority 2023, published 2025)
